According to PubChem BioAssay AID248 (DTP/NCI, 2004):
Values joined by “and” are separate entries in the source; they are usually repeats but may differ in a detail not shown here. Identical values can stand only once. Toxic doses and inconclusive results are not listed. No stated cut-off is given here; in the data, active means T/C of 150% or more; inactive means T/C below 125%.

Test system: L1210 leukemia ip in BDF1 mice, survival T/C
Assay: NCI In Vivo Anticancer Drug Screen. Data for tumor model L1210 Leukemia (intraperitoneal) in B6D2F1 (BDF1) mice
Conditions: endpoint: mean survival time, higher = longer survival
How it was run: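 Transplantable tumor model; survival measured in treated vs vehicle control mice. Value = treated/control.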

[1] = dose: 100.0 mg/kg/injection, schedule: Q01DX009 (ip), vehicle: Klucel (hydroxypropylcellulose) (HPC)
[2] = dose: 100.0 mg/kg/injection, schedule: Q04DX003 (ip), vehicle: Klucel (hydroxypropylcellulose) (HPC)
[3] = dose: 200.0 mg/kg/injection, schedule: Q01DX009 (ip), vehicle: Klucel (hydroxypropylcellulose) (HPC)
[4] = dose: 200.0 mg/kg/injection, schedule: Q04DX003 (ip), vehicle: Klucel (hydroxypropylcellulose) (HPC)
[5] = dose: 400.0 mg/kg/injection, schedule: Q01DX009 (ip), vehicle: Klucel (hydroxypropylcellulose) (HPC)
[6] = dose: 400.0 mg/kg/injection, schedule: Q04DX003 (ip), vehicle: Klucel (hydroxypropylcellulose) (HPC)
[7] = dose: 100.0 mg/kg/injection, schedule: Q04DX003 (ip), vehicle: saline with Tween-80
[8] = dose: 200.0 mg/kg/injection, schedule: Q04DX003 (ip), vehicle: saline with Tween-80
[9] = dose: 50.0 mg/kg/injection, schedule: Q01DX001 (ip), vehicle: saline
[10] = dose: 100.0 mg/kg/injection, schedule: Q01DX001 (ip), vehicle: saline
[11] = dose: 200.0 mg/kg/injection, schedule: Q01DX001 (ip), vehicle: saline
[12] = dose: 400.0 mg/kg/injection, schedule: Q01DX001 (ip), vehicle: saline
[13] = dose: 50.0 mg/kg/injection, schedule: Q04DX003 (ip), vehicle: saline
[14] = dose: 100.0 mg/kg/injection, schedule: Q04DX003 (ip), vehicle: saline
[15] = dose: 200.0 mg/kg/injection, schedule: Q04DX003 (ip), vehicle: saline

Measured: T/C

CC(=O)Nc1ccc2ccccc2c1Br
inactive: [1] 104 % of control | [2] 95 % of control | [3] 103 % of control | [4] 95 % of control | [5] 119 % of control | [6] 95 % of control

CCCC(O)(CC)CCC
inactive: [7] 100 % of control | [8] 100 % of control

COc1ccccc1-n1c(O)c(N=Nc2ccccc2C)c(=O)n(-c2ccccc2OC)c1=S
inactive: [2] 96 % of control | [4] 94 % of control | [6] 100 % of control

CCOC=Nc1ccc(-n2cnc3c(Cl)ncnc32)cc1C
inactive: dose: 100.0 mg/kg/injection, schedule: Q01DX001 (ip), vehicle: carboxymethylcellulose (CMC) 91 % of control | dose: 400.0 mg/kg/injection, schedule: Q01DX001 (ip), vehicle: carboxymethylcellulose (CMC) 98 % of control

COc1ccc(Cl)cc1CCCO
inactive: [9] 100 % of control | [10] 100 % of control | [11] 92 % of control | [12] 119 % of control

CCCCOC(=O)/C=C/C(=O)[O][Sn]([CH2]CCC)([CH2]CCC)[O]C(=O)/C=C/C(=O)OCCCC
inactive: dose: 12.5 mg/kg/injection, schedule: Q01DX009 (sc), vehicle: olive oil, sesame oil, peanut oil 98 % of control | dose: 25.0 mg/kg/injection, schedule: Q01DX009 (sc), vehicle: olive oil, sesame oil, peanut oil 108 % of control | dose: 25.0 mg/kg/injection, schedule: Q04DX002 (sc), vehicle: olive oil, sesame oil, peanut oil 97 % of control | dose: 50.0 mg/kg/injection, schedule: Q01DX009 (sc), vehicle: olive oil, sesame oil, peanut oil 95 % of control | dose: 50.0 mg/kg/injection, schedule: Q04DX002 (sc), vehicle: olive oil, sesame oil, peanut oil 94 % of control | dose: 100.0 mg/kg/injection, schedule: Q04DX002 (sc), vehicle: olive oil, sesame oil, peanut oil 96 % of control and 106 % of control | dose: 200.0 mg/kg/injection, schedule: Q04DX002 (sc), vehicle: olive oil, sesame oil, peanut oil 89 % of control

CC1SCC(NC(=O)NCCCl)CS1 (stereo not given)
inactive: dose: 100.0 mg/kg/injection, schedule: Q04DX002 (ip), vehicle: gum acacia 103 % of control | dose: 200.0 mg/kg/injection, schedule: Q04DX002 (ip), vehicle: gum acacia 100 % of control | dose: 400.0 mg/kg/injection, schedule: Q04DX002 (ip), vehicle: gum acacia 100 % of control

CCCCCCCC1CCC(=O)O1 (stereo not given)
inactive: [13] 103 % of control | [10] 95 % of control | [14] 105 % of control | [11] 98 % of control | [15] 97 % of control | [12] 100 % of control

CN=C(NC)c1ccc(NC(=O)c2ccc(C(=O)Nc3ccc(C(=NC)NC)c(C)c3)cc2)cc1C
inactive: dose: 4.4 mg/kg/injection, schedule: Q01DX Z (ip), vehicle: carboxymethylcellulose (CMC) 98 % of control | dose: 6.6 mg/kg/injection, schedule: Q01DX Z (ip), vehicle: carboxymethylcellulose (CMC) 102 % of control | dose: 10.0 mg/kg/injection, schedule: Q01DX Z (ip), vehicle: carboxymethylcellulose (CMC) 100 % of control | dose: 15.0 mg/kg/injection, schedule: Q01DX Z (ip), vehicle: carboxymethylcellulose (CMC) 107 % of control and 108 % of control and 112 % of control | dose: 22.5 mg/kg/injection, schedule: Q01DX Z (ip), vehicle: carboxymethylcellulose (CMC) 111 % of control | dose: 30.0 mg/kg/injection, schedule: Q01DX Z (ip), vehicle: carboxymethylcellulose (CMC) 96 % of control | dose: 35.0 mg/kg/injection, schedule: Q01DX Z (ip), vehicle: carboxymethylcellulose (CMC) 100 % of control

OCCN1CCN(CC/C=C2/c3ccccc3Sc3ccc(Cl)cc32)CC1
inactive: dose: 6.25 mg/kg/injection, schedule: Q01DX001 (ip), vehicle: saline 96 % of control | dose: 8.0 mg/kg/injection, schedule: Q01DX015 (ip), vehicle: saline 107 % of control | dose: 12.5 mg/kg/injection, schedule: Q01DX001 (ip), vehicle: saline 102 % of control | dose: 12.5 mg/kg/injection, schedule: Q01DX009 (ip), vehicle: saline 108 % of control | dose: 25.0 mg/kg/injection, schedule: Q01DX001 (ip), vehicle: saline 98 % of control and 122 % of control | dose: 25.0 mg/kg/injection, schedule: Q01DX009 (ip), vehicle: saline 116 % of control | dose: 25.0 mg/kg/injection, schedule: Q04DX003 (ip), vehicle: saline 110 % of control | dose: 37.5 mg/kg/injection, schedule: Q01DX001 (ip), vehicle: saline 101 % of control | [9] 113 % of control | [13] 116 % of control | dose: 75.0 mg/kg/injection, schedule: Q01DX001 (ip), vehicle: saline 102 % of control and 120 % of control | [10] 100 % of control

CC(=O)[O][Hg][c]1s[c]([Hg][O]C(C)=O)[c]([Hg][O]C(C)=O)[c]1[Hg][O]C(C)=O
inactive: dose: 6.25 mg/kg/injection, schedule: Q04DX003 (ip), vehicle: Klucel (hydroxypropylcellulose) (HPC) 104 % of control | dose: 12.5 mg/kg/injection, schedule: Q04DX003 (ip), vehicle: Klucel (hydroxypropylcellulose) (HPC) 102 % of control | dose: 25.0 mg/kg/injection, schedule: Q04DX003 (ip), vehicle: Klucel (hydroxypropylcellulose) (HPC) 95 % of control | dose: 50.0 mg/kg/injection, schedule: Q04DX003 (ip), vehicle: Klucel (hydroxypropylcellulose) (HPC) 101 % of control

CS(=O)(=O)OC1C2CCC(C2=C(c2ccccc2)c2ccccc2)C1OS(C)(=O)=O (stereo not given)
inactive: dose: 75.0 mg/kg/injection, schedule: Q01DX001 (ip), vehicle: carboxymethylcellulose (CMC) 93 % of control | dose: 150.0 mg/kg/injection, schedule: Q01DX001 (ip), vehicle: carboxymethylcellulose (CMC) 101 % of control | dose: 300.0 mg/kg/injection, schedule: Q01DX001 (ip), vehicle: carboxymethylcellulose (CMC) 91 % of control

CCC1(CC)NC(=O)NC1=O
inactive: [13] 102 % of control | dose: 100.0 mg/kg/injection, schedule: Q01DX009 (ip), vehicle: saline 99 % of control | [14] 105 % of control | dose: 200.0 mg/kg/injection, schedule: Q01DX009 (ip), vehicle: saline 98 % of control | [15] 102 % of control | dose: 400.0 mg/kg/injection, schedule: Q01DX009 (ip), vehicle: saline 102 % of control | dose: 400.0 mg/kg/injection, schedule: Q04DX003 (ip), vehicle: saline 103 % of control

COc1ccc(NC(=O)Nc2cc([N+](=O)[O-])ccc2C)c(OC)c1
inactive: dose: 100.0 mg/kg/injection, schedule: Q04DX002 (ip), vehicle: Klucel (hydroxypropylcellulose) (HPC) 92 % of control | dose: 200.0 mg/kg/injection, schedule: Q04DX002 (ip), vehicle: Klucel (hydroxypropylcellulose) (HPC) 108 % of control | dose: 400.0 mg/kg/injection, schedule: Q04DX002 (ip), vehicle: Klucel (hydroxypropylcellulose) (HPC) 92 % of control

S=C([S-])[P+](C1CCCCC1)(C1CCCCC1)C1CCCCC1
inactive: dose: 50.0 mg/kg/injection, schedule: Q01DX009 (ip), vehicle: saline with Tween-80 97 % of control | dose: 100.0 mg/kg/injection, schedule: Q01DX009 (ip), vehicle: saline with Tween-80 97 % of control | [7] 97 % of control | dose: 200.0 mg/kg/injection, schedule: Q01DX009 (ip), vehicle: saline with Tween-80 97 % of control | [8] 87 % of control

Cc1ccc(S(=O)(=O)OCC2C3C=CC(C3)C2COS(=O)(=O)c2ccc(C)cc2)cc1 (stereo not given)
inactive: [1] 92 % of control | [2] 95 % of control | [3] 97 % of control | [4] 98 % of control | [5] 98 % of control | [6] 95 % of control
